Tests used:
[1] = system: MC26 CRC lung tumors; assay: 5-FU treatment of CRC lung disease model, monitored with PRISM (urine, PET-CT); assay type: in vivo, BALB/c mice; settings: 5-FU 15 mg/kg i.p.
Description: 5-Fluorouracil (5-FU) was purchased (Sigma-Aldrich) and prepared as previously described.[47] 5-FU or vehicle control (DMSO) was administered by intraperitoneal injection at in a 0.2 mL volume starting 1 week after cell injection for metastasis-initiation experiments. A 15 mg/kg dose per treatment was used for all experiments. […] Experimental group sizes were practically associated according to the number of mice housed per cage (n=5 mice per cage). […] Tumor-bearing mice were closely monitored and euthanized following health-check advice given by an independent veterinary scientist responsible for animal welfare. […] Reconstructed PET and CT data were quantitatively evaluated using VivoQuant software (inviCRO Inc.). […] The radioactivity uptake values within CT-drawn organs were obtained from mean voxel values within the ROI and converted to percentage injected dose (ID) and then divided by mouse weight (g) to obtain an imaging ROI-derived percentage of the injected radioactive dose per gram of tissue (%ID/g). […] The tumor (or tissue) to tissue (i.e. lung to liver) ratio was calculated by dividing the mean lung by the mean liver %ID/g values. To quantify the radioactivity in diseased tissues ex vivo, tissues were harvested after perfusion with PBS and counts were collected using a 2480 WIZARD2 gamma counter (Perkin Elmer Inc.). […]

[2] = system: MC26 CRC lung tumors; settings: mouse, in vivo
[3] = system: LS 174T tumors; assay: PET-CT imaging of low glucose uptake subcutaneous xenografts; set-up: species or system NCr nude mice; settings: mouse, in vivo

| SMILES | relative lung/liver ratio of PET-CT signal, no-treatment cohort versus cohort treated with chemotherapy ([1]; two weeks of treatment, 64Cu-PRISM PET-CT) | effect on tumor progression compared with non-treated cohort ([1]; urinary reporter signal and PET imaging, after a single week) | background signal in the chest / heart accumulation on PET-CT [2] | tumor uptake versus background tissue [3] |
| --- | --- | --- | --- | --- |
| O=c1[nH]cc(F)c(=O)[nH]1 [5-FU, 5-Fluorouracil] | over 3 times | significantly inhibited tumor progression |  |  |
| OC[C@H]1OC(O)[C@H](F)[C@@H](O)[C@@H]1O (stereo partly shown) [18F-FDG, 18F-2-deoxyfluoroglucose] |  |  | strong accumulation in the heart | indistinguishable from the background tissue |
